In ChEMBL document CHEMBL1125412, “NG-allyl- and NG-cyclopropyl-L-arginine: two novel inhibitors of macrophage nitric oxide synthase” (J Med Chem, 1992):

Key:
[1] = Compound was tested for the inhibition of inducible murine macrophage nitric oxide(NO) synthase
[2] = Compound was tested for the inhibition of inducible murine macrophage expressed as inactivation constant
[3] = Compound was tested for the inhibition of inducible murine macrophage nitric oxide(NO) synthase, activity expressed as inhibitory constant

Row | Structure (SMILES) | Ki [1] [µM] | K inact [2] [min⁻¹] | Ki [3] [µM]
1 | N=C(NCCC[C@H](N)C(=O)O)NC1CC1 | 7.7 |  | 
2 | C=CC/N=C(/N)NCCC[C@H](N)C(=O)O [5-N-ALLYL-ARGININE] | 2.1 | 0.026 | 3.4
3 | CNC(=N)NCCC[C@H](N)C(=O)O [TILARGININE] |  | 0.05 | 4.2
